Key:
CYP2B6 = CYP2B6 (Homo sapiens, UniProt P20813); assay: Eurofins CYP450 inhibition, 3-Cyano-7-ethoxycoumarin substrate; format: in vitro ADME; conditions: recombinant CYP2B6, probe 3-cyano-7-ethoxycoumarin, 10 μM 2AP
Aromatase / CYP19A1 = Aromatase / CYP19A1 (Homo sapiens, UniProt P11511); assay: Eurofins CYP450 inhibition, dibenzyl fluorescein substrate; format: biochemical; conditions: 10 μM 2AP
GABAA Flunitrazepam = assay: Eurofins radioligand receptor binding inhibition; conditions: 10 μM 2AP
CYP2C19 = CYP2C19 (Homo sapiens, UniProt P33261); assay: Eurofins CYP450 inhibition, 3-Cyano-7-ethoxycoumarin substrate; format: in vitro ADME; conditions: recombinant CYP2C19, probe 3-cyano-7-ethoxycoumarin, 10 μM 2AP
CYP2C19, sequence (P33261 whole entry): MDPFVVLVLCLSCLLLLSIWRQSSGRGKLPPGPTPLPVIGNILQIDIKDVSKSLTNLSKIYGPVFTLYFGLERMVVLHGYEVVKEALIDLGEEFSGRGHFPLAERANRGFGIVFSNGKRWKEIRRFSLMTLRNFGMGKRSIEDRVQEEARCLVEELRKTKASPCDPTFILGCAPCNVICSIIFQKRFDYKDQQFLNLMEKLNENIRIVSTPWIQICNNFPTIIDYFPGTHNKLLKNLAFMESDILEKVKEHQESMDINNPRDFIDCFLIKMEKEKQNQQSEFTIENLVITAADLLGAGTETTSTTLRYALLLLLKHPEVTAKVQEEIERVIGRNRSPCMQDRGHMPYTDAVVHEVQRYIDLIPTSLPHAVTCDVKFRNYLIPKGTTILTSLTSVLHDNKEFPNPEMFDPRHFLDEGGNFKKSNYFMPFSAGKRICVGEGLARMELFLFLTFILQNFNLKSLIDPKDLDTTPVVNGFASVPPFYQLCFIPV

mouse recombinant NEU3 = system: mouse recombinant NEU3; parameters: method as in PMID 33144389; conditions: pH 6.9, read-out: IC50, inhibition of release of active TGF-β1 from human latent TGF-β1; cited from earlier work
Adrenergic α1B = Adrenergic α1B (Rattus norvegicus, UniProt P15823); assay: Eurofins radioligand receptor binding inhibition; conditions: 10 μM 2AP
Adrenergic α1B, sequence (P15823 whole entry): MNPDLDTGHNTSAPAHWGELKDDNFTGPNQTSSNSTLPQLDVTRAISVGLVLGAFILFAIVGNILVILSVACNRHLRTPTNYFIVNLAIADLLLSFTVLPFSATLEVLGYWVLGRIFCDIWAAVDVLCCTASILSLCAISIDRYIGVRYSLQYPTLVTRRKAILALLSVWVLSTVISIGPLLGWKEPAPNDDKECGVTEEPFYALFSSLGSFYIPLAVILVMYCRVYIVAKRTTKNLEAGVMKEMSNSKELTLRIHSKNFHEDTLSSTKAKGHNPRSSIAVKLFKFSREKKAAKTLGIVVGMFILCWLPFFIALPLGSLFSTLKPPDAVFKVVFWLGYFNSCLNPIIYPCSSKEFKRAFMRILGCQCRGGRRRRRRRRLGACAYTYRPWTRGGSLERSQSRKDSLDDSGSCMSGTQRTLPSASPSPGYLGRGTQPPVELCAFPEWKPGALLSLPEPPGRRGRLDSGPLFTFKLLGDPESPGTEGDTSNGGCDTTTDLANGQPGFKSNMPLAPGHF

Sodium Channel, Site 2 = assay: Eurofins radioligand receptor binding inhibition; conditions: 10 μM 2AP
Opiate μ (OP3, MOP) = Opiate μ (OP3, MOP) (Homo sapiens, UniProt P35372); assay: Eurofins radioligand receptor binding inhibition; parameters: dose or concentration left out as unconfirmed
Adrenergic α2A = Adrenergic α2A (Homo sapiens, UniProt P08913); assay: Eurofins radioligand receptor binding inhibition; conditions: 10 μM 2AP
[1] = system: Calcium Channel L-Type, Dihydropyridine; assay: Eurofins radioligand receptor binding inhibition; conditions: 10 μM 2AP
[2] = biological target: Nicotinic Acetylcholine α3β4 (Homo sapiens, UniProt P30926+P32297); assay: Eurofins radioligand receptor binding inhibition; conditions: 10 μM 2AP
Nicotinic Acetylcholine α3β4, sequence (P32297 32-505): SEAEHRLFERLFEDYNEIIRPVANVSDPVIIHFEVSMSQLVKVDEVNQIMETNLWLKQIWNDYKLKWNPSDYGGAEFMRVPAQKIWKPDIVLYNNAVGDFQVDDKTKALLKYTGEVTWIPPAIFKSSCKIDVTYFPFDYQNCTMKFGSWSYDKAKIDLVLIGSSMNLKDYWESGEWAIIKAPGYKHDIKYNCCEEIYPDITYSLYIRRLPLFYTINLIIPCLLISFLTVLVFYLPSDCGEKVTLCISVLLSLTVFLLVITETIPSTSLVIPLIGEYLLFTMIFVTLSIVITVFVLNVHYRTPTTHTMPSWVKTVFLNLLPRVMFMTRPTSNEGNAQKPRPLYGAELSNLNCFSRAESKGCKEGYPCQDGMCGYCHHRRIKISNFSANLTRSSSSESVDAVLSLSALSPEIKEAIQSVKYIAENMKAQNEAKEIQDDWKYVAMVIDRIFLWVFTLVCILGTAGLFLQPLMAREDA
Nicotinic Acetylcholine α3β4, sequence (P30926 22-498): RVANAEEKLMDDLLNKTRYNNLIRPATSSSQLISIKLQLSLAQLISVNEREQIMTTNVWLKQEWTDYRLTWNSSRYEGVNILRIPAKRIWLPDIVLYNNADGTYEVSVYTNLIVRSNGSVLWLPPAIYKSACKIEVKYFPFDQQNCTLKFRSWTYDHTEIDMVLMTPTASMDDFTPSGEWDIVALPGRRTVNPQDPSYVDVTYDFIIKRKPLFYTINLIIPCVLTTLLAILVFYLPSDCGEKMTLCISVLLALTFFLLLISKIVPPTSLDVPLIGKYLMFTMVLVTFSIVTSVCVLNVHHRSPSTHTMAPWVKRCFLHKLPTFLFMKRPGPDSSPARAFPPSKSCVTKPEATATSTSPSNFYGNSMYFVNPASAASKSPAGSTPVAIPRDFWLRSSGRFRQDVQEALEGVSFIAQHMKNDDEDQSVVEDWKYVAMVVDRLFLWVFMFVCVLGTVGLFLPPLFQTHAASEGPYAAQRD

28 receptors = assay: Eurofins panel of 28 receptors, inhibition of binding; conditions: 10 μM 2AP
CYP2C9 = CYP2C9 (Homo sapiens, UniProt P11712); assay: Eurofins CYP450 inhibition, 3-Cyano-7-ethoxycoumarin substrate; format: in vitro ADME; conditions: recombinant CYP2C9, probe 3-cyano-7-ethoxycoumarin, 10 μM 2AP
Muscarinic M3 = Muscarinic M3 (Homo sapiens, UniProt P20309); assay: Eurofins radioligand receptor binding inhibition; conditions: 10 μM 2AP
Cannabinoid CB1 = Cannabinoid CB1 (Homo sapiens, UniProt P21554); assay: Eurofins radioligand receptor binding inhibition; parameters: dose or concentration left out as unconfirmed
[3] = biological target: Nicotinic Acetylcholine α1, Bungarotoxin (Homo sapiens, UniProt P02708+P07510+Q07001); assay: biochemical; format: binding; parameters: dose or concentration left out as unconfirmed
Dopamine D2S = Dopamine D2S (Homo sapiens, UniProt P14416); assay: Eurofins radioligand receptor binding inhibition; parameters: dose or concentration left out as unconfirmed
Muscarinic M2 = Muscarinic M2 (Homo sapiens, UniProt P08172); assay: Eurofins radioligand receptor binding inhibition; parameters: dose or concentration left out as unconfirmed
Muscarinic M2, sequence (P08172 whole entry): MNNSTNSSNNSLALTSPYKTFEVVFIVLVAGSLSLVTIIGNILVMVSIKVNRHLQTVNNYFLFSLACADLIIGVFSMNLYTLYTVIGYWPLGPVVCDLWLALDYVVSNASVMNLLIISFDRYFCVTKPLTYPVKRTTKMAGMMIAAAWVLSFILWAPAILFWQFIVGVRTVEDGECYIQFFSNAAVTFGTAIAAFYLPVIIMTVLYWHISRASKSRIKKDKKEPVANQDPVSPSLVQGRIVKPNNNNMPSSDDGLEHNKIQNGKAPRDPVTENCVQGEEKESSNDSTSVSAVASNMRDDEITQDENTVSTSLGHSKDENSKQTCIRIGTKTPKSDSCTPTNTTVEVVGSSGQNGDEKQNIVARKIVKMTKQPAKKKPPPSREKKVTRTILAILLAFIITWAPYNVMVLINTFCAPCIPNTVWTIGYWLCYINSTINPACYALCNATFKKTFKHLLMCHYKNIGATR

Adenosine A1 = Adenosine A1 (Homo sapiens, UniProt P30542); assay: Eurofins radioligand receptor binding inhibition; parameters: dose or concentration left out as unconfirmed
Potassium Channel [KATP] = assay: Eurofins radioligand receptor binding inhibition; conditions: 10 μM 2AP
[4] = system: aromatase/CYP19A1, CYP2C8, CYP1A2, CYP2B6, CYP2C19, CYP2C9, CYP2D6 and CYP3A4 (mean over 8 enzymes); assay: Eurofins CYP450 panel, mean over 8 enzymes; format: in vitro ADME; conditions: human, recombinant CYP450 enzymes; 10 μM 2AP; mean over 8 CYP450 enzymes; read-out: percent inhibition of CYP450 enzymes, mean ± SD, n = 8
Adrenergic β1 = Adrenergic β1 (Homo sapiens, UniProt P08588); assay: Eurofins radioligand receptor binding inhibition; conditions: 10 μM 2AP
Glutamate = assay: Eurofins radioligand receptor binding inhibition; conditions: 10 μM 2AP
CYP3A4 = CYP3A4 (Homo sapiens, UniProt P08684); assay: Eurofins CYP450 inhibition, 7-Benzyloxy-4-(trifluoromethyl)-coumarin substrate; format: in vitro ADME; conditions: recombinant CYP3A4, probe 7-benzyloxy-4-(trifluoromethyl)-coumarin, 10 μM 2AP
GABAA Muscimol = assay: Eurofins radioligand receptor binding inhibition; conditions: 10 μM 2AP
Prostanoid EP4 = Prostanoid EP4 (Homo sapiens, UniProt P35408); assay: Eurofins radioligand receptor binding inhibition; conditions: 10 μM 2AP
Histamine H1 = Histamine H1 (Homo sapiens, UniProt P35367); assay: Eurofins radioligand receptor binding inhibition; conditions: 10 μM 2AP
Adrenergic α1A = Adrenergic α1A (Rattus norvegicus, UniProt P43140); assay: Eurofins radioligand receptor binding inhibition; conditions: 10 μM 2AP
Dopamine D1 = Dopamine D1 (Homo sapiens, UniProt P21728); assay: Eurofins radioligand receptor binding inhibition; parameters: dose or concentration left out as unconfirmed
Dopamine D1, sequence (P21728 whole entry): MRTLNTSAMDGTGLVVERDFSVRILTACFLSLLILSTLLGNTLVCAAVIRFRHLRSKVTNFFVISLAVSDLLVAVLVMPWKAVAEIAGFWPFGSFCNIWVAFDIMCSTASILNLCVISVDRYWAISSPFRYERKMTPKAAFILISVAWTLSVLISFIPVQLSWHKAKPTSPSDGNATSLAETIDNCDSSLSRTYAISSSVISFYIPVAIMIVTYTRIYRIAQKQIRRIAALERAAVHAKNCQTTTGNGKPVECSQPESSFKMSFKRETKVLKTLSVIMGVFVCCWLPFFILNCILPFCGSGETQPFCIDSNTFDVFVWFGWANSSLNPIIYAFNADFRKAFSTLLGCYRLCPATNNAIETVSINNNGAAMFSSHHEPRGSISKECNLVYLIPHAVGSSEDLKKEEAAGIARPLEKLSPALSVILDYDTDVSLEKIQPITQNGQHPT

Sigma σ1 = Sigma σ1 (Homo sapiens, UniProt Q99720); assay: Eurofins radioligand receptor binding inhibition; conditions: 10 μM 2AP
Sigma σ1, sequence (Q99720 whole entry): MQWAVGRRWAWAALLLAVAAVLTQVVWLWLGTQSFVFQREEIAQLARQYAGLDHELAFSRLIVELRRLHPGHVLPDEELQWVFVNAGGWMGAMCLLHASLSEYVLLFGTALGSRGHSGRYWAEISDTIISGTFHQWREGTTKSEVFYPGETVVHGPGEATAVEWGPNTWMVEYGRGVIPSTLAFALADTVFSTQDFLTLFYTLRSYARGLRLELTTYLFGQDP

hERG potassium channel = hERG potassium channel (Homo sapiens, UniProt Q12809); assay: Eurofins radioligand receptor binding inhibition; conditions: 10 μM 2AP
hERG potassium channel, sequence (Q12809 whole entry): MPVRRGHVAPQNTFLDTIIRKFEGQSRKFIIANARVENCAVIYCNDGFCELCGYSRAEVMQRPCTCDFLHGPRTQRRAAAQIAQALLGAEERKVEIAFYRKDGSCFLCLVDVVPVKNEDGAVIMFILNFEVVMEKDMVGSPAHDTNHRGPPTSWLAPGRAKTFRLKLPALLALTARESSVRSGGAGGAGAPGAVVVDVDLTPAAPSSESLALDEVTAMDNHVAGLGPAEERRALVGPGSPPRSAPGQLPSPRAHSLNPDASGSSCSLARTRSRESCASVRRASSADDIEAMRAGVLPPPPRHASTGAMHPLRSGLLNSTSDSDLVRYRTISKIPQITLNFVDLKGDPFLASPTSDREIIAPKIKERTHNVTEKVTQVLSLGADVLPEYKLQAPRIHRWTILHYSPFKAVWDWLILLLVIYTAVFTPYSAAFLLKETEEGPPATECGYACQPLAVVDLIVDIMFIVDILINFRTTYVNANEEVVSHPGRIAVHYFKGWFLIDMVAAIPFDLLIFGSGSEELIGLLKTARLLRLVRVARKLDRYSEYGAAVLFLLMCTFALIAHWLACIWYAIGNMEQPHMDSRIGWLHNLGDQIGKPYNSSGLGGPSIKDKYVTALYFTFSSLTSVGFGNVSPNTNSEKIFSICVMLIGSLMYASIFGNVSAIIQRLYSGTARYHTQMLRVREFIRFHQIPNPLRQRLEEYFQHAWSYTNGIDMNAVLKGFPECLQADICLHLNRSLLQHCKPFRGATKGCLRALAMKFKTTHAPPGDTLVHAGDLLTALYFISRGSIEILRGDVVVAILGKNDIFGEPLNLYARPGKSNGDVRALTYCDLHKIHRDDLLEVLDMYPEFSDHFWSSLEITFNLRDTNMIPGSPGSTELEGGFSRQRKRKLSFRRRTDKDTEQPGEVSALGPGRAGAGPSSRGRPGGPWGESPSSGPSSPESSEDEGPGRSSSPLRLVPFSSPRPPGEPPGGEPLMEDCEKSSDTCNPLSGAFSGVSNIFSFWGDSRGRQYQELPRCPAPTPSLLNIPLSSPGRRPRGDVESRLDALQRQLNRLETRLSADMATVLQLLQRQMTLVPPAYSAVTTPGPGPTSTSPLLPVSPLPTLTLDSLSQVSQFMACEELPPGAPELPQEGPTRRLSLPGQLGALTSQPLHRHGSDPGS

Norepinephrine (NET) = Norepinephrine (NET) (Homo sapiens, UniProt P23975); assay: Eurofins radioligand receptor binding inhibition; conditions: 10 μM 2AP
Norepinephrine (NET), sequence (P23975 whole entry): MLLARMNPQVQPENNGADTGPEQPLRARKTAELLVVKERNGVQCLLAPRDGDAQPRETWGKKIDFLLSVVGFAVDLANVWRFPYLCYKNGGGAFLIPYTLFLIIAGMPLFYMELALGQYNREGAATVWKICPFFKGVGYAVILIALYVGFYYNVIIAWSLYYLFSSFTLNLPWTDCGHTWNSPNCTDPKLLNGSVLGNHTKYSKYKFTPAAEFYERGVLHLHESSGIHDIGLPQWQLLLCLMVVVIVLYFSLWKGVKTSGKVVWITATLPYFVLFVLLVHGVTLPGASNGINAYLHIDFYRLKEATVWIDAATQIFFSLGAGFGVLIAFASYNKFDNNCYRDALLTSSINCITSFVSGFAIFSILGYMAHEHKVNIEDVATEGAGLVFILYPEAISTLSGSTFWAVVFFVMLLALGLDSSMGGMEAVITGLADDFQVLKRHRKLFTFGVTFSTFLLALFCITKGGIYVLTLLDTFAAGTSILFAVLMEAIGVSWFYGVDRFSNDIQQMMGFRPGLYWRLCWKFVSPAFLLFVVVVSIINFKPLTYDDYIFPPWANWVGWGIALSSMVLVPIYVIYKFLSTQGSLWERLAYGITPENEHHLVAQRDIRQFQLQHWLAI
Procedure: (§1) CYP450 enzymes and a panel of receptors were assessed for inhibition by 10 μM 2AP using HitProfilingScreen + CYP450 LeadHunter Panel at Eurofins (Eurofins Panlabs Discovery Services, New Taipei City, Taiwan). Briefly, human recombinant CYP450 enzymes were preincubated at 37°C for 15 minutes with 10 μM 2AP. Enzyme activity was assessed by cleavage of the CYP450 fluorogenic substrates dibenzyl fluorescein (aromatase / CYP19A1, CYP2C8), 3-Cyano-7-ethoxycoumarin (CYP1A2, CYP2B6, CYP2C19, CYP2C9, and CYP2D6), or 7-Benzyloxy-4-(trifluoromethyl)-coumarin (CYP3A4), as described previously. Inhibition of receptor binding was assessed using a panel of receptors expressed on cell lines or using tissue extracts and preincubated at 25°C for 30–120 minutes with 10 μM 2AP. Cells or tissue extracts were then incubated with radiolabeled specific ligands a described (https://www.eurofinsdiscovery.com/catalog/hitprofilingscreen-cyp450-leadhunter-panel-tw/PP115) and inhibition of binding was reported (S2 Table).

[5] = biological target: Serotonin (5-Hydroxytryptamine) 5-HT2B (Homo sapiens, UniProt P41595); assay: Eurofins radioligand receptor binding inhibition; conditions: 10 μM 2AP
Procedure: as §1

Question: For CC(=O)c1ccccn1 [2AP, 2-acetyl pyridine], which inhibition at 10 µM (CYP2B6) is on record?
Answer: Its inhibition at 10 µM is 0%.

Question: And the inhibition at 10 µM (Aromatase / CYP19A1)?
Answer: The inhibition at 10 µM was 1%.

Question: What about the “% Inhibition” value (GABAA Flunitrazepam) of the same molecule?
Answer: The value was -2%.

Question: And the inhibition at 10 µM (CYP2C19)?
Answer: Its inhibition at 10 µM is 3%.

Question: And the IC50 (mouse recombinant NEU3)?
Answer: Its IC50 is 800 ± 170 nM.

Question: And the inhibition at 10 µM (Adrenergic α1B)?
Answer: Its inhibition at 10 µM is 2%.

Question: And the “% Inhibition” value (Sodium Channel, Site 2)?
Answer: Its value is 13%.

Question: And the inhibition (Opiate μ (OP3, MOP))?
Answer: The inhibition was 0%.

Question: And the inhibition at 10 µM (Adrenergic α2A)?
Answer: Its inhibition at 10 µM is -5%.

Question: And the “% Inhibition” value [1]?
Answer: Its value is 7%.

Question: What about the inhibition at 10 µM [2] of the same molecule?
Answer: The inhibition at 10 µM was -2%.

Question: What about the “inhibitory effect on an additional 28 receptors” value (28 receptors) of the same molecule?
Answer: The value was “no inhibitory effect”.

Question: And the inhibition at 10 µM (CYP2C9)?
Answer: Its inhibition at 10 µM is 1%.

Question: What about the inhibition at 10 µM (Muscarinic M3) of the same molecule?
Answer: Its inhibition at 10 µM is 1%.

Question: What about the inhibition (Cannabinoid CB1) of the same molecule?
Answer: Its inhibition is -1%.

Question: What about the inhibition [3] of the same molecule?
Answer: Its inhibition is 5%.

Question: What about the inhibition (Dopamine D2S) of the same molecule?
Answer: Its inhibition is -4%.

Question: And the inhibition (Muscarinic M2)?
Answer: Its inhibition is 4%.

Question: And the inhibition (Adenosine A1)?
Answer: The inhibition was 10%.

Question: What about the “% Inhibition” value (Potassium Channel [KATP]) of the same molecule?
Answer: The value was -11%.

Question: And the inhibition at 10 µM [4]?
Answer: The inhibition at 10 µM was 1.5 ± 1.2%.

Question: What about the inhibition at 10 µM (Adrenergic β1) of the same molecule?
Answer: The inhibition at 10 µM was 3%.

Question: And the “% Inhibition” value (Glutamate)?
Answer: Its value is 27%.

Question: What about the inhibition at 10 µM (CYP3A4) of the same molecule?
Answer: The inhibition at 10 µM was -2%.

Question: And the “% Inhibition” value (GABAA Muscimol)?
Answer: The value was 4%.

Question: What about the inhibition at 10 µM (Prostanoid EP4) of the same molecule?
Answer: Its inhibition at 10 µM is 7%.

Question: What about the inhibition at 10 µM (Histamine H1) of the same molecule?
Answer: The inhibition at 10 µM was 8%.

Question: And the inhibition at 10 µM (Adrenergic α1A)?
Answer: The inhibition at 10 µM was 5%.

Question: What about the inhibition (Dopamine D1) of the same molecule?
Answer: Its inhibition is -5%.

Question: What about the inhibition at 10 µM (Sigma σ1) of the same molecule?
Answer: The inhibition at 10 µM was 13%.

Question: And the inhibition at 10 µM (hERG potassium channel)?
Answer: Its inhibition at 10 µM is 4%.

Question: What about the inhibition at 10 µM (Norepinephrine (NET)) of the same molecule?
Answer: Its inhibition at 10 µM is 7%.

Question: What about the inhibition at 10 µM [5] of the same molecule?
Answer: Its inhibition at 10 µM is 12%.
